Test results published in patent US4792563A, “Insecticidal ethers” (Imperial Chemical Industries PLC, priority 1986, dated 1988).

How the values were obtained:
Type in all cases: in vivo
[1] = system: Musca domestica (houseflies - adults); assay: insecticidal mortality test, contact, cotton wool/sugar; conditions: 24 h, 1 day, read-out: grading of mortality, MD
Method: (§1) The activity of the Product was determined using variety of insect pests. The Product was used in the form of liquid preparations containing 500 , 100 or 10 parts per million (ppm) by weight of the Product. The preparations were made by dissolving the Product in acetone and diluting the solutions with water containing b 0.01% by weight of a wetting agent sold under the trade name "LISSAPOL" NX until the liquid preparations contained the required concentration of the Product. "Lissapol" is a Registered Trade Mark.
(§2) The test procedure adopted with regard to each pest was basically the same and comprised supporting a number of the pests on a medium which was usually a host plant or a foodstuff on which the pests feed, and treating either or both the pests and the medium with the preparations. The mortality of the pests was then assessed at peroods usually varying from one to three days after the treatment.
(§3) The results of the tests are given in Table IV for each of the Products, at the rate in parts per million given in the second column, as a grading of mortality designated as A, B or C wherein A indicates 80-100% mortality or knockdown, B indicates 50-79% mortality or knockdown and C indicates less than 50% mortality or knockdown.
(§4) In Table IV the pest organism used is designated by a letter code and the pest species, the support medium or food, and the type and duration of test is given in Table III.

[2] = system: Nephotettix cincticeps (green leaf hopper - nymphs); assay: insecticidal mortality test, contact, rice plant; conditions: 72 h, 3 days, read-out: grading of mortality, NC
Method: as §1, §2, §3, §4
NC Nephotettix cincticeps

[3] = system: Spodoptera exigua (lesser army worm - larvae); assay: insecticidal mortality test, residual, cotton leaf; conditions: 72 h, 3 days, read-out: grading of mortality, SP
Method: as §1, §2, §3, §4
(lesser army worm - larvae)

[4] = system: Tetranychus urticae (spider mites - adult); assay: insecticidal mortality test, contact, French bean leaf; conditions: 72 h, 3 days, read-out: grading of mortality, TU
Method: as §1, §2, §3, §4

[5] = system: Heliothis virescens (tobacco budworm - larvae); assay: whole plant or invertebrate; conditions: in Gossypium hirsutum, 72 h, read-out: grading of mortality, HV
Method: as §1, §2, §3, §4
(tobacco budworm - larvae)

[6] = system: Blattella germanica (cockroach nymphs); assay: insecticidal mortality test, residual, plastic pot; conditions: 72 h, 3 days, read-out: grading of mortality, BG
Method: as §1, §2, §3, §4

[7] = system: Musca domestica (houseflies - adults); assay: knockdown test, cotton wool/sugar; conditions: 4 hours, read-out: grading of knockdown, MD/KD
Method: as §1, §2
In the case of the species Musca domestica (housefly), additional tests to determine the knockdown effect of the compounds were performed.
as §3, §4

Myzus persicae (aphids) = assay: insecticidal mortality test, contact, Chinese cabbage leaf; conditions: 72 h, 3 days, read-out: grading of mortality, MP
Method: as §1, §2, §3, §4

[8] = system: Diabrotica balteata (rootworm larvae); assay: insecticidal mortality test, residual, filter paper/maize seed; conditions: 72 h, 3 days, read-out: grading of mortality, DB
Method: as §1, §2, §3, §4

[9] = system: Niloparvata lugens (brown plant hopper - nymphs); assay: insecticidal mortality test, contact, rice plant; conditions: 72 h, 3 days, read-out: grading of mortality, NL
Method: as §1, §2
as §3, with “knockdown. […]” for “knockdown.”

| Structure (SMILES) | mortality at 500 ppm [1] [%] | mortality at 500 ppm [2] [%] | mortality at 500 ppm [3] [%] | mortality at 500 ppm [4] [%] | mortality at 500 ppm [5] [%] | mortality at 500 ppm [6] [%] | pest or weed control at 500 ppm [7] [%] | mortality at 500 ppm (Myzus persicae (aphids)) [%] | mortality at 500 ppm [8] [%] | mortality at 500 ppm [9] [%] |
| --- | --- | --- | --- | --- | --- | --- | --- | --- | --- | --- |
| CCC(C)(COCc1cccc(Oc2ccccc2)c1)C(F)F (racemic) [Compound 3, (RS)-1,1-Difluoro-2-ethyl-2-methyl-3(3-phenoxybenzyloxy)propane] | 50 to 79 | < 50 | 80 to 100 | < 50 | < 50 | < 50 | 50 to 79 | < 50 | 80 to 100 |  |
| CC(C)(COCc1ccc(F)c(Oc2ccccc2)c1)C(F)F [Compound 1, 1,1-difluoro-2,2-dimethyl-3-(4-fluoro-3-phenoxybenzyloxy)propane] | 80 to 100 |  | 80 to 100 | < 50 | 80 to 100 | 80 to 100 | 80 to 100 | < 50 | 80 to 100 | 80 to 100 |
| CC(C)(COCc1cccc(Oc2ccccc2)c1)C(F)F [Compound 2, 1,1-Difluoro-2,2-dimethyl-3-(3-phenoxybenzyloxy)propane] | 80 to 100 | 80 to 100 | < 50 | < 50 | < 50 | 80 to 100 | 80 to 100 | < 50 | 80 to 100 |  |
| CC(C)(COCc1ccc(F)c(Cc2ccccc2)c1)C(F)F [Compound 4, 1,1-Difluoro-2,2-dimethyl-3-(4-fluoro-3-benzylbenzyloxy)propane] | 80 to 100 |  | 50 to 79 | < 50 | < 50 | 50 to 79 | < 50 | < 50 | 80 to 100 |  |
| CC(C)(COCc1cccc(Oc2ccccc2)n1)C(F)F [Compound 5, 1,1-Difluoro-2,2-dimethyl-3-[(6-phenoxypyrid-2-yl)methyloxy]propane] | 80 to 100 |  | 80 to 100 | 80 to 100 | < 50 | 80 to 100 | 80 to 100 | 50 to 79 | 80 to 100 | 80 to 100 |
| CC(C)(COCc1ccc(F)c(Nc2ccccc2)c1)C(F)F [Compound 6, 1,1-Difluoro-2,2-dimethyl-3-(3-phenylamino-4-fluorobenzyloxy)propane] | < 50 | 80 to 100 | 80 to 100 | 80 to 100 | 80 to 100 |  | 50 to 79 | 80 to 100 | 80 to 100 |  |
| CC(C)(CF)COCc1ccc(F)c(Oc2ccccc2)c1 [Compound 7, 1-Fluoro-2,2-dimethyl-3-(4-fluoro-3-phenoxybenzyloxy)propane] | 80 to 100 | 80 to 100 | 80 to 100 | < 50 | 80 to 100 | 80 to 100 | 80 to 100 | < 50 | 80 to 100 |  |
| CC(C)(CF)COCc1cccc(Oc2ccccc2)c1 [Compound 8, 1-fluoro-2,2-dimethyl-3-(3-phenoxybenzyloxy)propane] | 50 to 79 | 80 to 100 | 80 to 100 | < 50 | 50 to 79 | < 50 | < 50 | < 50 | 80 to 100 |  |
| Fc1ccc(COCC2(C(F)F)CCCC2)cc1Oc1ccccc1 [Compound 21, 1-Difluoromethyl-l-(4-fluoro-3-phenoxybenzyloxymethyl)cyclopentane] | < 50 | 80 to 100 | < 50 | < 50 | 50 to 79 |  | < 50 | < 50 | 80 to 100 |  |
